Starred links: 1 amine or outer side, 2 acyl side, 3 side chain; linkers in the order of their positions; H or OH if unused. Positions of bridges follow the written chain, without caps; N, C: chain ends. Non-standard residues stand in square brackets, D forms with d. Residues, ends and D or L forms follow the SMILES beside them. *: point of attachment. hPhe(3,5-F2-4-CF3) = N[C@@H](CCc1cc(F)c(C(F)(F)F)c(F)c1)C(=O)O; hPhe(3-Cl-4-CF3) = N[C@@H](CCc1ccc(C(F)(F)F)c(Cl)c1)C(=O)O; NMeDab(N,N-(CH2CF2CH2)) = CN[C@@H](CCN1CC(F)(F)C1)C(=O)O; NMePhe(4-CF3) = CN[C@@H](Cc1ccc(C(F)(F)F)cc1)C(=O)O; hPhe(4-CF3) = N[C@@H](CCc1ccc(C(F)(F)F)cc1)C(=O)O; NMePhe(4-Cl) = CN[C@@H](Cc1ccc(Cl)cc1)C(=O)O; NMePhe(2-Cl) = CN[C@@H](Cc1ccccc1Cl)C(=O)O; X83 = O=C([C@H](Cc1cncc(Br)c1)N[*:1])[*:2]; NMedβ3hAla = C[C@H](CC(=O)[*:2])N(C)[*:1]; hPhe(4-F) = N[C@@H](CCc1ccc(F)cc1)C(=O)O; NMeGly(cPent) = CN[C@H](C(=O)O)C1CCCC1; Phe(3-I) = N[C@@H](Cc1cccc(I)c1)C(=O)O; Phe(4-F) = N[C@@H](Cc1ccc(F)cc1)C(=O)O; Pro(4,4-F2) = O=C(O)[C@@H]1CC(F)(F)CN1; NMeY = CN[C@@H](Cc1ccc(O)cc1)C(=O)O; NMeCha = CN[C@@H](CC1CCCCC1)C(=O)O; NMeF = CN[C@@H](Cc1ccccc1)C(=O)O; NMeD = CN[C@@H](CC(=O)O)C(=O)O; NMeL = CN[C@@H](CC(C)C)C(=O)O; d(β3hA) = C[C@@H](N)CC(=O)O; NMeAbu = CC[C@H](NC)C(=O)O; NMeA = CN[C@@H](C)C(=O)O; NMeAib = CNC(C)(C)C(=O)O; Nle = CCCC[C@H](N)C(=O)O; Piperidide = C1CCN(*)CC1; Pyrrolidide = C1CCN(*)C1; Ac5c = NC1(C(=O)O)CCCC1; Aze = O=C(O)[C@@H]1CCN1; Sar = CNCC(=O)O
biological target: T1, Kras and SOS1 (biotin-tagged human Kras loaded with GDP, His-tagged human SOS1) (Homo sapiens, UniProt P01116, G12D); assay: Protein-protein interaction inhibition between Kras and SOS1 (KrasGl2D-SOS PPI) using AlphaScreen; format: binding; conditions: AlphaScreen; biotin-tagged human Kras loaded with GDP, His-tagged human SOS1; read-out: KRAS G12D-SOS PPI IC50
T1 construct: made in house; host or cells: E. coli (stated for Kras only)
T1 sequence (P01116 1-188 isoform P01116-2 G12D): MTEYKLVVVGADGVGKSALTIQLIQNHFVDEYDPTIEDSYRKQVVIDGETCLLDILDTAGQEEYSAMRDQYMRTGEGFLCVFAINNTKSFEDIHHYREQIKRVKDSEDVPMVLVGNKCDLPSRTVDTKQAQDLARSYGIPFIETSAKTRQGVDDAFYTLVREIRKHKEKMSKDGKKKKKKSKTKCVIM
Method in brief: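 Energy transfer from nickel-chelate donor beads bound to His-SOS1 to streptavidin acceptor beads bound to biotin-Kras, expressed in E. coli and loaded with GDP after purification, was monitored. Donors were excited at 680 nm; singlet oxygen reaching acceptors gave emission read at 520-620 nm.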

SMILES	IC50 [nM]
CC[C@H](C)[C@@H]1NC(=O)[C@H](CC(C)C)N(C)C(=O)C[C@@H](C(=O)N(C)C)N(C)C(=O)[C@H](C2CCCC2)N(C)C(=O)[C@H](COC)NC(=O)[C@H](CCN2CC(F)(F)C2)N(C)C(=O)[C@H](CCc2ccc(C(F)(F)F)c(Cl)c2)NC(=O)CN(C)C(=O)[C@H](CC2CCCCC2)N(C)C(=O)[C@@H]2CCN2C(=O)[C@H](C)N(C)C1=O [Compound 130] ([NMeL]I[NMeA][Aze][NMeCha][Sar][hPhe(3-Cl-4-CF3)][NMeDab(N,N-(CH2CF2CH2))]S(Me)[NMeGly(cPent)][NMeD]-NMe2; lactam N-11)	10
CC[C@H](C)[C@@H]1NC(=O)[C@H](CC(C)C)N(C)C(=O)C[C@@H](C)N(C)C(=O)[C@H](C2CCCC2)N(C)C(=O)C2(CCCC2)NC(=O)[C@@H]2CC(F)(F)CN2C(=O)[C@H](CCc2cc(F)c(C(F)(F)F)c(F)c2)NC(=O)CN(C)C(=O)[C@H](Cc2ccc(C(F)(F)F)cc2)N(C)C(=O)CN(C)C(=O)CN(C)C1=O [Compound 269] (cyclo([Ac5c][NMeGly(cPent)][NMedβ3hAla][NMeL]I[Sar][Sar][NMePhe(4-CF3)][Sar][hPhe(3,5-F2-4-CF3)][Pro(4,4-F2)]))	3.4
CC[C@H](C)[C@@H]1NC(=O)[C@H](C)N(C)C(=O)C[C@@H](C)NC(=O)[C@H](C2CCCC2)N(C)C(=O)C2(CCCC2)NC(=O)[C@@H]2CCCN2C(=O)[C@H](CCc2ccc(C(F)(F)F)c(Cl)c2)NC(=O)CN(C)C(=O)[C@H](Cc2ccccc2Cl)N(C)C(=O)[C@@H]2CCCN2C(=O)CN(C)C1=O [Compound 82] (cyclo([Ac5c][NMeGly(cPent)][d(β3hA)][NMeA]I[Sar]P[NMePhe(2-Cl)][Sar][hPhe(3-Cl-4-CF3)]P))	140
CC[C@H](C)[C@@H]1NC(=O)[C@H](C)N(C)C(=O)C[C@@H](C(=O)N2CCCC2)NC(=O)[C@H](CC(C)C)N(C)C(=O)[C@H](Cc2ccccc2)NC(=O)[C@H](CC(C)C)NC(=O)[C@H](CCc2ccc(C(F)(F)F)cc2)NC(=O)CN(C)C(=O)[C@H](Cc2ccc(Cl)cc2)N(C)C(=O)CN(C)C(=O)CN(C)C1=O [Compound 1085] ([NMeA]I[Sar][Sar][NMePhe(4-Cl)][Sar][hPhe(4-CF3)]LF[NMeL]D-Pyrrolidide; lactam N-11)	50
CC[C@H](C)[C@@H]1NC(=O)[C@H](C)N(C)C(=O)C[C@@H](C(=O)N2CCCC2)NC(=O)[C@H](CC(C)C)N(C)C(=O)[C@H](Cc2ccccc2)N(C)C(=O)[C@H](CC(C)C)NC(=O)[C@H](CCc2ccc(F)cc2)NC(=O)CN(C)C(=O)[C@H](Cc2ccc(Cl)cc2)N(C)C(=O)CN(C)C(=O)CN(C)C1=O [Compound 646] ([NMeA]I[Sar][Sar][NMePhe(4-Cl)][Sar][hPhe(4-F)]L[NMeF][NMeL]D-Pyrrolidide; lactam N-11)	120
CC[C@H](C)[C@@H]1NC(=O)[C@H](CC(C)C)N(C)C(=O)C[C@@H](C(=O)N2CCCCC2)N(C)C(=O)[C@H](CC(C)C)NC(=O)C(C)(C)N(C)C(=O)[C@H](Cc2ccc(F)cc2)NC(=O)[C@H](Cc2cccc(I)c2)NC(=O)CN(C)C(=O)[C@H](CC2CCCCC2)N(C)C(=O)CN(C)C(=O)CN(C)C1=O [Compound 711] ([NMeL]I[Sar][Sar][NMeCha][Sar][Phe(3-I)][Phe(4-F)][NMeAib]L[NMeD]-Piperidide; lactam N-11)	35
CCCC[C@@H]1NC(=O)[C@H](Cc2cncc(Br)c2)NC(=O)CN(C)C(=O)[C@H](Cc2ccc(OC)cc2)N(C)C(=O)[C@@H]2CCN2C(=O)[C@H](C)N(C)C(=O)[C@H]([C@@H](C)CC)NC(=O)[C@H](CC)N(C)C(=O)C[C@@H](C(=O)N2CCCCC2)N(C)C(=O)[C@H](CC(C)C)NC(=O)C(C)(C)N(C)C1=O [Compound 1240] ([NMeAbu]I[NMeA][Aze][NMeY](Me)[Sar][X83][Nle][NMeAib]L[NMeD]-Piperidide; lactam N-11)	290

From patent US12371454B2, “Cyclic peptide compound having Kras inhibitory action” (priority 2019, dated 2025)
